In one assay the test system is LXRs. Particulars: Lehmann et al. 1997; cited from earlier work.
For assay [1], the target named is T1, glucocorticoid receptor DNA binding domain and the ligand binding region of LXRβ (Homo sapiens, UniProt P55055).
T1 sequence (P55055 222-460 limits assumed): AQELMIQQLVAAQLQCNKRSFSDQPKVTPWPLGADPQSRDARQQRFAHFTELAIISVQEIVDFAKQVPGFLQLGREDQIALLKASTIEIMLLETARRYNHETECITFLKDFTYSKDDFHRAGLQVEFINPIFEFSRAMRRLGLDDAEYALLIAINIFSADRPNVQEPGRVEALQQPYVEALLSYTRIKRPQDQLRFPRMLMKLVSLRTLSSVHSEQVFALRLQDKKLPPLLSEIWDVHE
Particulars: Schmidt et al. 1999; cited from earlier work.

The target of assay [2] is T2, glucocorticoid receptor DNA binding domain and the ligand binding region of PPARα (Homo sapiens, UniProt Q07869).
T2 sequence (Q07869 239-466 limits assumed): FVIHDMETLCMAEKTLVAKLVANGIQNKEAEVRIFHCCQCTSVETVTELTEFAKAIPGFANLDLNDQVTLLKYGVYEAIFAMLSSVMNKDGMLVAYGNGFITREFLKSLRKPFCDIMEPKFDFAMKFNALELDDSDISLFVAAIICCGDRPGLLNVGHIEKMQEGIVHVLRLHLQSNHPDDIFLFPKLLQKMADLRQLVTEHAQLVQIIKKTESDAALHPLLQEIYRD
The note with it: Schmidt et al. 1999; cited from earlier work.

Assay [3] concerns the target T3, glucocorticoid receptor DNA binding domain and the ligand binding region of PPARβ (Homo sapiens, UniProt Q03181).
T3 sequence (Q03181 211-439 limits assumed): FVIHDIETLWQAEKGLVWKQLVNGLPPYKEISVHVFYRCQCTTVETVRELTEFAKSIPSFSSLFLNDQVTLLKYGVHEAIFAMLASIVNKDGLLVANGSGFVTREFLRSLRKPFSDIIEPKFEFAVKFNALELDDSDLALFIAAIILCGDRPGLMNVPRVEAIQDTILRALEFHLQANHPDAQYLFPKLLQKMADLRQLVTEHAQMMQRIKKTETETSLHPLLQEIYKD
The note with it: Schmidt et al. 1999; cited from earlier work.

In a further assay the test system is human GLUT4 promoter. The experiment in a line: Human GLUT4 promoter luciferase reporter in 3T3-L1 adipocytes. Format: cell-based, mouse. Particulars: 3T3-L1 adipocytes day 8, serum-free media, 24 hours; FIG. 8B. As to the method: To further examine whether LXR ligands activate the human GLUT4 promoter, clonal populations of 3T3-L1 cells carrying stably-integrated luciferase reporters under the control of various truncations of the human GLUT4 promoter were differentiated into adipocytes. On day 8 of differentiation, cells were incubated in serum-free media with the indicated concentrations of T1317. Luciferase activity was measured 24 hours later.
(In a reporter assay the amount or activity of a reporter protein is the signal.)

The test system of a further assay is 3T3-L1 adipocytes. The experiment in a line: Basal glucose uptake in 3T3-L1 adipocytes (14C-labeled 2-DOG). The note with it: 3T3-L1 adipocytes day 10, 24 hours serum-free; FIG. 9. Format: cell-based. Here is the method: 3T3-L1 adipocytes at day 10 of differentiation were incubated for 24 hours with serum-free media supplemented with the indicated concentrations of T1317. The following day, basal glucose uptake (in the absence of insulin) of treated cells was measured in 96-well CytostarT plates using 14 C-labeled 2-DOG. Insulin (1 μg/ml) was used as positive control.

The subject of assay [4] is genes involved in glucose metabolism in liver. As to the kind of experiment: Gene expression in liver of mice gavaged with LXR agonist (real time quantitative PCR). Type of assay: in vivo, mouse. Particulars: C57/B16 mice, 20 mg/kg/day gavage, fasted 12 hours; FIG. 1A. As to the method: (§1) This Example describes coordinated regulation of genes involved in glucose metabolism by LXR agonist in vivo. 10 week old female C57/B16 mice (n=9 per group) were gavaged daily with GW3965 (20 mg/kg/day) or vehicle. At the end of the treatment period, mice were fasted for 12 hours, sacrificed and total RNA was isolated. Gene expression for individual animals was determined by real time quantitative PCR assays. The results are presented in FIGS. 1 and 2 as average expression for each group +/−standard deviation.

Assay [5] deals with GLUT4 expression in white adipose tissue. As to the kind of experiment: Gene expression in white adipose tissue of mice gavaged with LXR agonist (real time quantitative PCR). Particulars: C57/B16 mice, 20 mg/kg/day gavage, fasted 12 hours; FIG. 1B. Type of assay: in vivo, mouse. As to the method:
as §1

Assay [6] deals with PGC-1 and PEPCK expression in livers of LXR null mice. As to the kind of experiment: Liver gene expression in LXR null mice vs wild-type controls. Format: in vivo, mouse. The note with it: 20 mg/kg/day gavage; FIG. 3A. As to the method:
(§2) This Example describes that the effects of LXR agonists on expression of genes involved in glucose metabolism is dependent on LXR expression. LXR null mice or wild-type controls on a mixed background (n=4 per group) were gavaged daily with GW3965 (20 mg/kg/day) or vehicle. At the end of the treatment period, mice were fasted for 12 hours, sacrificed and total RNA was isolated. Gene expression for was determined by real time quantitative PCR assays.

Assay [7] concerns GLUT4 expression in adipose tissue of LXR null mice. The experiment in a line: Adipose tissue gene expression in LXR null mice vs wild-type controls. The note with it: 20 mg/kg/day gavage; FIG. 3B. Type of assay: in vivo, mouse. As to the method: as §2
Assay [8] has as its system C57B16 mice fed a high fat diet. As to the kind of experiment: Glucose tolerance test in diet-induced obese mice. Format: in vivo, mouse. Particulars: diet-induced obesity, 20 mg/kg/day for one week. As to the method:
To further examine effects of LXR agonists on glucose tolerance, C57B16 mice were fed a high fat diet for three months (Clinton/Cybulsky rodent diet; 40% kcal from fat, devoid of cholesterol) to induce obesity. After 3 months, mice were treated for one week with vehicle or 20 mg/kg/day GW3965. Glucose tolerance tests were performed by intraperitoneal injection of glucose (2 g/kg body weight) after 8 hours of fasting (FIG. […]). In addition, effect of GW3965 on glucose tolerance in lean C57B1/6 mice was also examined (FIG. 10B). The lean C57B1/6 mice maintained on normal chow diet and similarly treated as indicated above.

In assay [9] the test system is obese, insulin-resistant ob/ob mice. As to the kind of experiment: Fasting plasma glucose in ob/ob mice, LXR agonist and/or metformin. The note with it: 3 months, GW3965 20 mg/kg/day, metformin 300 mg/kg/day, FIG. 11. Type of assay: in vivo, mouse. As to the method: This Example describes treatment of mice with a combination of an LXR agonist and a known anti-diabetic drug. Obese, insulin-resistant ob/ob mice were treated with an LXR ligand, GW3965, at 20 mg/kg/day and/or metformin at 300 mg/kg/day for 3 months. Fasting plasma glucose levels were then determined.

The target of the next assay is T4, LXRα (Homo sapiens, UniProt Q13133).
T4 sequence (Q13133 1-447): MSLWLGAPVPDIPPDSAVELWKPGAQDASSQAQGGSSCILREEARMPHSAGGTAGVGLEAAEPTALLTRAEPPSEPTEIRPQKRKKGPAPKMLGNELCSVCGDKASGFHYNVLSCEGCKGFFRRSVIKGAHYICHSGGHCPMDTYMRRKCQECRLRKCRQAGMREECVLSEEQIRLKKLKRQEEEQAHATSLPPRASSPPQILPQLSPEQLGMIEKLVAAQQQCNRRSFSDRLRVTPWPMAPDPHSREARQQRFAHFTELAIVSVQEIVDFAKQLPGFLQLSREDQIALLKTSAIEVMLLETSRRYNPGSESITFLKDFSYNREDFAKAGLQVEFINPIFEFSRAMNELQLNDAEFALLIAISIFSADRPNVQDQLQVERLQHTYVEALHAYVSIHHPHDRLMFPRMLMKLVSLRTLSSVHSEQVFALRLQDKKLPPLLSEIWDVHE
Particulars: Collins et al. 2002; cited from earlier work.

Another assay deals with T5, LXRβ (Homo sapiens, UniProt P55055).
T5 sequence (P55055 1-460): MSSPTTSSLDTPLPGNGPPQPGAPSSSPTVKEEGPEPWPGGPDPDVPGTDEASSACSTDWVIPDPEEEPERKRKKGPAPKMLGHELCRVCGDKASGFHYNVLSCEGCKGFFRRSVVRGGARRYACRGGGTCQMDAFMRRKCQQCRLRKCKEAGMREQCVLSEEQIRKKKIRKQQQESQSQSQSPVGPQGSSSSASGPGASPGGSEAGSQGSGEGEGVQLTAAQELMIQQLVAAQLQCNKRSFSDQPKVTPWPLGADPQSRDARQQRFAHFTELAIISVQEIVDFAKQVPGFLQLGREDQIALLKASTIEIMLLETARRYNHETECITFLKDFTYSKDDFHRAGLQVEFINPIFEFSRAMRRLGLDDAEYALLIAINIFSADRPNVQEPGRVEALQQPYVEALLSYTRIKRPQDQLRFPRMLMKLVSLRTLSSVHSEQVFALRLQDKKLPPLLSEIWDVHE
The note with it: Collins et al. 2002; cited from earlier work.

For the molecule `CC(C)CC[C@@H](O)[C@@H](C)[C@H]1CC[C@H]2[C@@H]3CC=C4C[C@@H](O)CC[C@]4(C)[C@H]3CC[C@]12C` [22(R)-hydroxycholesterol], the “activation of LXRs” value in the assay with LXRs is on record as “activated”.
`CCCCCCCCCCCCCCOc1ccc(C(=O)O)o1` [TOFA, 5-tetradecyloxy-2-furancarboxylic acid]: the “transactivation of chimeric GR DBD / LXRβ ligand binding region receptor” value in assay [1] is on record as “transactivates”. In assay [2], the “transactivation of chimeric GR DBD / PPARα ligand binding region receptor” value was “transactivates”. Further, the “transactivation of chimeric GR DBD / PPARβ ligand binding region receptor” value in assay [3] was “transactivates”.
In the case of `O=S(=O)(c1ccccc1)N(CC(F)(F)F)c1ccc(C(O)(C(F)(F)F)C(F)(F)F)cc1` [T1317], the “luciferase activity under control of human GLUT4 promoter truncations” value with human GLUT4 promoter was “direct target for regulation”. Further, the “basal glucose uptake (in the absence of insulin)” value in the assay on 3T3-L1 adipocytes is on record as “enhance glucose uptake”.
On to `O=C(O)Cc1cccc(OCCCN(Cc2cccc(C(F)(F)F)c2Cl)CC(c2ccccc2)c2ccccc2)c1` [GW3965], for which, in [4], the “expression of genes involved in gluconeogenesis in liver” value is listed as “represses” and the “glucokinase expression in liver” value is “induces”. Moreover, the “GLUT4 expression in white adipose tissue” value in [5] is given as “induces”. Besides, in [6], the “regulation of PEPCK expression in livers of LXR null mice” value is “abolished” and the “regulation of PGC-1 expression in livers of LXR null mice” value is “abolished”. The “regulation of GLUT4 expression in adipose tissue of LXR null mice” value in [7] was “abolished”. In addition, the insulin resistance entry in [8] is recorded as “improve”. The glucose tolerance entry in assay [8] (i.p. glucose 2 g/kg after 8 hours fasting) is listed as “improve”. For the same molecule, the “fasting plasma glucose level compared to control (vehicle)” value in assay [9] is recorded as “did not show significant difference”. Moreover, at LXRα, the “activation of LXRα” value was “effective in activating”. The “activation of LXRβ” value at LXRβ was “effective in activating”.
As for `CN(C)C(=N)N=C(N)N` [metformin], in [9], the “fasting plasma glucose level compared to control (vehicle)” value is given as “did not show significant difference”.
Regarding `C[C@H](CC[C@@H]1OC1(C)C)[C@H]1CC[C@H]2[C@@H]3CC=C4C[C@@H](O)CC[C@]4(C)[C@H]3CC[C@]12C` [24,25(S)-epoxycholesterol], the “activation of LXRs” value in the assay with LXRs was “activated”.
As to `CC(C)[C@@H](O)CC[C@@H](C)[C@H]1CC[C@H]2[C@@H]3CC=C4C[C@@H](O)CC[C@]4(C)[C@H]3CC[C@]12C` [24(S)-hydroxycholesterol], the “activation of LXRs” value in the assay on LXRs is on record as “activated”.

Source of the values: patent US20050036992A1, “Novel use of liver X receptor agonists” (IRM LLC, priority 2002, published 2005).
